According to patent US6376497B1, “Antifungal azole derivatives having a fluorinated vinyl group and process for preparing same” (Korea Research Institute of Chemical Technology, priority 1999, dated 2002):

Tests used:
Experiment in all cases: In vitro antifungal activity, microbroth dilution MIC
Type in all cases: cell-based
[1] = system: Trichophyton mentagrophytes B. 32663; settings: 4 to 48 hours; for Minimal inhibitory concentration(MIC), T. mentagrophytes B. 32663: RPMI-1640, 35° C., no growth observed
Description: (§1) In vitro antifungal activities of the inventive antifungal compounds were evaluated using the test strains shown in Table VIII by the following microbroth dilution method which is a modified version of the procedure recommended by National Committee for Clinical Laboratory Standards(see National Committee for Clinical Laboratory Standards, 1992, Reference methods for broth dilution antifungal susceptibility testing of yeasts, Proposed standard M27-P, National Committee for clinical laboratory standards, Villanova, Pa; and National Committee for Clinical Laboratory Standards, 1995, Reference methods for broth dilution antifungal susceptibility testing of yeasts. Tentative standard M27-T, National Committee for clinical laboratory standards, Villanova, Pa).
(§2) Sabourad Dextrose Agar(Difco) was used as a culture medium, and RPMI-1640 broth(Sigma. Co. w/L-glutamine, wo/NaHCO3)(0.165 M MOPS, pH 7.0), as a dilution medium.
(§3) Each of the test strains were subcultured in Sabourad Dextrose Agar medium twice and a stain sample was taken from prominent colonies and suspended in sterile physiological saline solution in a cap tube. The turbidity of the suspension was adjusted to that of the Mcfarland 0.5 standard sample(approximately 10^6 CFU/ml). Then the suspension was diluted 500-fold with sterile RPMI-1640 liquid medium to 2×10^3 CFU/ml.
(§4) Each of the test compounds(the compounds obtained in Examples 1 to 150 and comparative compounds, i.e., fluconazole(FCZ) and itraconazole (ICZ)), was dissolved in DMSO to give a stock solution having a concentration of 4000 μg/ml and the stock solution was successively diluted to obtain test solutions having test compound concentrations of 200, 100, 50, 25, 12.5, 6.25, 3.13, 1.56, 0.78, 0.39, 0.20 and 0.10 μg/ml, respectively.
(§5) 0.1 ml portion of the test solutions were added to the wells of a sterile 96 well plate. Then, 0.1 ml portion of each of the test strain solutions were added successively to the wells and the plate was incubated at 35° C. for 4 to 48 hours.
(§6) Minimal inhibitory concentration(MIC) of each compound was defined as the concentration of the test compound where no growth of the strain could be observed.

[2] = system: Candida albicans IFO. 1385; settings: 4 to 48 hours; for Minimal inhibitory concentration(MIC), C. albicans IFO. 1385: RPMI-1640, 35° C., no growth observed
Description: as §1, §2, §3, §4, §5, §6

[3] = system: Candida tropicalis A. 13803; settings: 4 to 48 hours; for Minimal inhibitory concentration(MIC), C. tropicalis A. 13803: RPMI-1640, 35° C., no growth observed
Description: as §1, §2, §3, §4, §5, §6

[4] = system: Torulopsis glabrata B. 16205; settings: 4 to 48 hours; for Minimal inhibitory concentration(MIC), T. glabrata B. 16205: RPMI-1640, 35° C., no growth observed
Description: as §1, §2, §3, §4, §5, §6

[5] = system: Aspergillus furnigatus B. 19119; settings: 4 to 48 hours; for Minimal inhibitory concentration(MIC), A furnigatus B. 19119: RPMI-1640, 35° C., no growth observed
Description: as §1, §2, §3, §4, §5, §6

Candida krusei K. 11655 = settings: 4 to 48 hours; for Minimal inhibitory concentration(MIC), C. krusei K. 11655: RPMI-1640, 35° C., no growth observed
Description: as §1, §2, §3, §4, §5, §6

[6] = system: Trichophyton mentagrophytes A. 9129; settings: 4 to 48 hours; for Minimal inhibitory concentration(MIC), T. mentagrophytes A. 9129: RPMI-1640, 35° C., no growth observed
Description: as §1, §2, §3, §4, §5, §6

[7] = system: Aspergillus niger A. 16404; settings: 4 to 48 hours; for Minimal inhibitory concentration(MIC), A. niger A. 16404: RPMI-1640, 35° C., no growth observed
Description: as §1, §2, §3, §4, §5, §6

[8] = system: Cryptococcus neoformans IFM. 40092; settings: 4 to 48 hours
Description: as §1, §2, §3, §4, §5, §6

[9] = system: Cryptococcus neoformans B. 42419; settings: 4 to 48 hours; for Minimal inhibitory concentration(MIC), Cry. neoformans B. 42419: RPMI-1640, 35° C., no growth observed
Description: as §1, §2, §3, §4, §5, §6

Candida albicans C1-2 = settings: 4 to 48 hours; for Minimal inhibitory concentration(MIC), C. albicans C1-2: RPMI-1640, 35° C., no growth observed
Description: as §1, §2, §3, §4, §5, §6

[10] = system: Cryptococcus neoformans A. 34144; settings: 4 to 48 hours; for Minimal inhibitory concentration(MIC), Cry. neoformans A. 34144: RPMI-1640, 35° C., no growth observed
Description: as §1, §2, §3, §4, §5, §6

[11] = system: Candida parapsitosis A. 7330; settings: 4 to 48 hours; for Minimal inhibitory concentration(MIC), C. parapsitosis A. 7330: RPMI-1640, 35° C., no growth observed
Description: as §1, §2, §3, §4, §5, §6

[12] = system: Candida pseudotropicalis K. 11658; settings: 4 to 48 hours; for Minimal inhibitory concentration(MIC), C. pseudotropicalis K. 11658: RPMI-1640, 35° C., no growth observed
Description: as §1, §2, §3, §4, §5, §6

[13] = system: Candida albicans A. 10231; settings: RPMI-1640, 35° C., 4 to 48 hours, no growth observed
Description: as §1, §2, §3, §4, §5, §6

SMILES	Minimal inhibitory concentration(MIC), T. mentagrophytes B. 32663 [1] [µg/mL]	Minimal inhibitory concentration(MIC), C. albicans IFO. 1385 [2] [µg/mL]	Minimal inhibitory concentration(MIC), C. tropicalis A. 13803 [3] [µg/mL]	Minimal inhibitory concentration(MIC), T. glabrata B. 16205 [4] [µg/mL]	Minimal inhibitory concentration(MIC), A furnigatus B. 19119 [5] [µg/mL]	Minimal inhibitory concentration(MIC), C. krusei K. 11655 (Candida krusei K. 11655) [µg/mL]	Minimal inhibitory concentration(MIC), T. mentagrophytes A. 9129 [6] [µg/mL]	Minimal inhibitory concentration(MIC), A. niger A. 16404 [7] [µg/mL]	Minimal inhibitory concentration(MIC), Cry. neoformans B. 42419 [9] [µg/mL]	Minimal inhibitory concentration(MIC), C. albicans C1-2 (Candida albicans C1-2) [µg/mL]	Minimal inhibitory concentration(MIC), Cry. neoformans A. 34144 [10] [µg/mL]	Minimal inhibitory concentration(MIC), C. parapsitosis A. 7330 [11] [µg/mL]	Minimal inhibitory concentration(MIC), C. pseudotropicalis K. 11658 [12] [µg/mL]	further results
FC(=Cc1ccc2c(c1)OCO2)OCC1COC(Cn2ccnc2)(c2ccc(F)cc2F)O1 (mixture of isomers) [Ex. 46]														Minimal inhibitory concentration (MIC) ([1]; T. mentagrophytes B. 32663, RPMI-1640, 35° C.): 0.20 µg/mL; Minimal inhibitory concentration (MIC) ([2]; C. albicans IFO. 1385, RPMI-1640, 35° C.): ≦0.10 μg/ml; Minimal inhibitory concentration (MIC) ([3]; C. tropicalis A. 13803, RPMI-1640, 35° C.): 50.0 µg/mL; Minimal inhibitory concentration (MIC) ([4]; T. glabrata B. 16205, RPMI-1640, 35° C.): 12.5 µg/mL; Minimal inhibitory concentration (MIC) ([5]; A furnigatus B. 19119, RPMI-1640, 35° C.): 1.56 µg/mL; Minimal inhibitory concentration (MIC) (Candida krusei K. 11655; C. krusei K. 11655, RPMI-1640, 35° C.): 25.0 µg/mL; Minimal inhibitory concentration (MIC) ([6]; T. mentagrophytes A. 9129, RPMI-1640, 35° C.): 0.39 µg/mL; Minimal inhibitory concentration (MIC) ([7]; A. niger A. 16404, RPMI-1640, 35° C.): 12.5 µg/mL; Minimal inhibitory concentration (MIC) ([8]; Cry. neoformans IFM. 40092, RPMI-1640, 35° C.): ≦0.10 μg/ml; Minimal inhibitory concentration (MIC) ([9]; Cry. neoformans B. 42419, RPMI-1640, 35° C.): 0.78 µg/mL; Minimal inhibitory concentration (MIC) (Candida albicans C1-2; C. albicans C1-2, RPMI-1640, 35° C.): 25.0 µg/mL; Minimal inhibitory concentration (MIC) ([10]; Cry. neoformans A. 34144, RPMI-1640, 35° C.): 0.78 µg/mL; Minimal inhibitory concentration (MIC) ([11]; C. parapsitosis A. 7330, RPMI-1640, 35° C.): 25.0 µg/mL; Minimal inhibitory concentration (MIC) ([12]; C. pseudotropicalis K. 11658, RPMI-1640, 35° C.): 12.5 µg/mL
CCc1ccc(C(=C(F)Oc2ccc(OCC3COC(Cn4ccnc4)(c4ccc(Cl)cc4Cl)O3)cc2)C(F)(F)F)cc1 (mixture of isomers) [Ex. 95]	50.0	6.25	>100	>100	>100	>100	50.0	>100	6.25	>100	3.13	>100	>100	Minimal inhibitory concentration(MIC), C. albicans A. 10231 [13]: >100 µg/mL
Cc1ccc(C(=C(F)N2CCN(c3ccc(OCC4COC(Cn5ccnc5)(c5ccc(Cl)cc5Cl)O4)cc3)CC2)C(F)(F)F)cc1 (mixture of isomers) [Ex. 126]	6.25	1.56	>100	>100	>100	3.13	12.5	>100	0.78	>100	0.78	3.13	1.56	Minimal inhibitory concentration(MIC), Cry. neoformans IFM. 40092 ([8]; RPMI-1640, 35° C., no growth observed): ≦0.10 μg/ml
